Experimental findings from patent publication US20260048062A1, “FUSED AMINO PYRIMIDINE COMPOUNDS FOR TREATMENT OF PSYCHOSIS AND PSYCHOTIC DISORDERS” (Ovid Therapeutics Inc., priority 2024, published 2026) are described below.

For experiment [1], the target named is T1, NKCC1 (Homo sapiens, UniProt P55011).
T1 construct: expressed in transfected cells; host or cells: HEK-293
T1 sequence (P55011 1-1212): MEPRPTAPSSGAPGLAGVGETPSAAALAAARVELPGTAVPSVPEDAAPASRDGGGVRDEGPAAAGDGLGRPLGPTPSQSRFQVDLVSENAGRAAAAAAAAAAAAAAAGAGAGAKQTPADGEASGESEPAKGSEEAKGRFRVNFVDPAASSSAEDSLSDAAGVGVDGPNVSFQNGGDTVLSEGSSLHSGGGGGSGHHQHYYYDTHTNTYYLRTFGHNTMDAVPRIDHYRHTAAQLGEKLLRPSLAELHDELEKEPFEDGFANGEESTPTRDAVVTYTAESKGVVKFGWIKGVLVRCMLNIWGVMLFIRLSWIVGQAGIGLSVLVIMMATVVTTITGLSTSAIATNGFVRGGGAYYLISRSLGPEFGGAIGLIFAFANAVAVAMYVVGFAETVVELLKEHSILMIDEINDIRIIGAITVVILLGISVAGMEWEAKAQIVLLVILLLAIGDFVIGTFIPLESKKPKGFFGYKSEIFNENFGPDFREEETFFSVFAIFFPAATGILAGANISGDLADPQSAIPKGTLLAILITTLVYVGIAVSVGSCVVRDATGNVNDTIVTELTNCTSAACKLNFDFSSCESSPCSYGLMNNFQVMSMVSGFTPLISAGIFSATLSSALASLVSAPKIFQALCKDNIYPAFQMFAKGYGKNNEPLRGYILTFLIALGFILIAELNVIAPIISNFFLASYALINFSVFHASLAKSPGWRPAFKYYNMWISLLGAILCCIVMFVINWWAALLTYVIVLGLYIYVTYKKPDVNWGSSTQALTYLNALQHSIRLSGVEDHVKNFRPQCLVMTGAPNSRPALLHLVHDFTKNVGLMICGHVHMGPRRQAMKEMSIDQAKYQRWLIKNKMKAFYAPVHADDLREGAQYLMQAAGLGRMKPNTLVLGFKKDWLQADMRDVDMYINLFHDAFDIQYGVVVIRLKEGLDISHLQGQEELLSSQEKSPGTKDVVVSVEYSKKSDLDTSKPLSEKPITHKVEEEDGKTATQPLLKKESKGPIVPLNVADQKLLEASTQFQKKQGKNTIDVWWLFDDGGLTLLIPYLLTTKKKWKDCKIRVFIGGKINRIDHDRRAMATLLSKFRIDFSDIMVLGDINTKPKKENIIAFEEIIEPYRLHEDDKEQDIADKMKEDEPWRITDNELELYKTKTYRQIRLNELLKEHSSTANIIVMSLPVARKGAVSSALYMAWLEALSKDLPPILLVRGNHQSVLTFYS
Put plainly: Tl+ flux assay, HEK-293 cells expressing NKCC1. To be noted: read-out: concentration at which effects on NKCC1 were seen. The format is cell-based. The protocol:
(§1) FLIPR TI Flux assay. HEK-293 cells were washed with HBSS, and then incubated with loading buffer containing TI sensitive fluorescent dye (https://www.moleculardevices.com), 20 μM bumetanide 20 μM ouabain and 2.5 mM probenecid for 1 h at room temperature (RT) under control conditions or with drugs in the dark using a FlexStation 3 microplate reader (Molecular Devices) and imaged […] for 30 min. Stimulus buffer was added containing 5 mM K^+/0.5 mM Tl^+ and cells were imaged every 1.5 over a 190 second time course The initial rate Tl^+ uptake (Relative Fluorescence Units (RFU) per second) was determined following addition of the stimulus buffer as outlined previously (Conway et al., 2017, supra) (Lee et al., 2022, supra).
(§2) Compared to KCC2, effects on KCC3, KCC4, and NKCC1 were only seen at concentrations more than 35-fold that of KCC2 (>100 μM) (FIG. 1G).

Experiment [2] addresses T2, KCC3 (Homo sapiens, UniProt Q9UHW9).
T2 construct: expressed in transfected cells; host or cells: HEK-293
T2 sequence (Q9UHW9 1-1150): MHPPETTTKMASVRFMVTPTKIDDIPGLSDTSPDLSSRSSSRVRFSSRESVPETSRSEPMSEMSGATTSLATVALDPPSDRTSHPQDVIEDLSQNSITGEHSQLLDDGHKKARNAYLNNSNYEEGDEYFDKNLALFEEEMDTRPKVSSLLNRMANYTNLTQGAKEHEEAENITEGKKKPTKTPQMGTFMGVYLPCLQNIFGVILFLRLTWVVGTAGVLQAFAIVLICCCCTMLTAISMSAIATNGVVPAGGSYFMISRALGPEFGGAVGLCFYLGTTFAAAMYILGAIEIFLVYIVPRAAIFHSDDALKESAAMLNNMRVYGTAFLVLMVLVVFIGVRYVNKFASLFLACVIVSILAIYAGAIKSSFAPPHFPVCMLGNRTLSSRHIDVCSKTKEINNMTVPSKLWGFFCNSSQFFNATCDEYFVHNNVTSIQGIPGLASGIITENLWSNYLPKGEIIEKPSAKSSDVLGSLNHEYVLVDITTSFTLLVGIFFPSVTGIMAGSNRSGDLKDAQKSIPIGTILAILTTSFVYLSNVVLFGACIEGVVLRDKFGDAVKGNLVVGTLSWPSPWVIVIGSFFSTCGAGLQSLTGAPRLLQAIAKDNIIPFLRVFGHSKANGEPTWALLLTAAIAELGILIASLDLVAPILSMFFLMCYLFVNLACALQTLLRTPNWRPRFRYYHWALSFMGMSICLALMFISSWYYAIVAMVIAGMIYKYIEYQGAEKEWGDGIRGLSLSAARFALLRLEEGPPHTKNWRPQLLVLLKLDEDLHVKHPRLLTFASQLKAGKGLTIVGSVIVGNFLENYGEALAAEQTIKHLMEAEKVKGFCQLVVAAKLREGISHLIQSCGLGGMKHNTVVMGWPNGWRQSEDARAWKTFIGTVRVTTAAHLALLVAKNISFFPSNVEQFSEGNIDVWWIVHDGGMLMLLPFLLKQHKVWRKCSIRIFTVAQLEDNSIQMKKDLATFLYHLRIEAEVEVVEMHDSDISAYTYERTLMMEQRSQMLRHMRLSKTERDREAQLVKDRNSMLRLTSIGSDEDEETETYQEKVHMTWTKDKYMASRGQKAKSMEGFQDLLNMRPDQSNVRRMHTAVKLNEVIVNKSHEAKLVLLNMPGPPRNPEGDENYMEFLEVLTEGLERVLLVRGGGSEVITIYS
Put plainly: Tl+ flux assay, HEK-293 cells expressing KCC3. To be noted: read-out: concentration at which effects on KCC3 were seen. The format is cell-based. As to the method: as §1, §2

pEC50: −log10 of the molar value. A value given as a limit tells only on which side of the number the result lay.

Regarding `C[C@@H]1CN(c2nc3c(c(Nc4ccc(C5CCCCC5)cc4)n2)COC3)CCO1` [Compound A, (R)—N-(4-cyclohexylphenyl)-2-(2-methylmorpholino)-5,7-dihydrofuro[3,4-d]pyrimidin-4-amine], the pEC50 in experiment [1] and in experiment [2] was < 4.00 in each case.
